Patent US9605027B2, “Polypeptides that bound to IL-23 receptor and inhibit binding of IL-23 and cell signaling thereof” (Medical Diagnostic Laboratories, LLC, priority 2011, dated 2017)
“Also recorded” adds a separate entry of the source. Peptide text beside a SMILES is read from it.

Tests used:
[1] = test system: IL-23 induced IL-17F production in human Th17 cells; experiment: IL-17F production induced by IL-23 in in vitro differentiated human Th17 cells; format: cell-based; details: IL-23 1 ng/ml, peptide 0-10 μM, ELISA; read-out: IC50, inhibition of IL-17F production
Protocol: To that end, we designed and performed an in vitro assay using human differentiated Th17 cells. CD4+ naive T cells were negatively enriched using a human CD4+ naive T cells enrichment kit (StemCell Technologies, Catalog #19155). The purity of enriched CD4+ naive T cells was determined by FACS analysis. 1×10^6 cells/ml of CD4+ naive T cells were differentiated into Th17 cells under Th17 culture condition (CD3/28 beads, 10 ng/ml of IL-1β, 10 ng/ml of IL-6, 10 ng/ml of IL-23 and 1 ng/ml of TGF-β) for 5 days. All cytokines were purchased from Humanzyme. The CD3/28 beads were used according to the manufacturer's instructions (Miltenyi Biotec). Differentiation of Th17 cells was confirmed by the production of IL-17F using ELISA.
Experiments were performed where cyclic peptide no. 2HT AA (SEQ ID NO: 177) was added to the differentiated Th17 cells 30 minutes before the addition of IL-23 cytokine Th17 cells were stimulated for 2 days. Ionomycin (1 μg/ml)/PMA (50 ng/ml) (BD biosciences, San Jose, Calif.) were added to the stimulated cells 4 hours before the collection of media to measure the IL-17F production by ELISA (Catalog #88-7478, eBioscience, San Diego, Calif.). […]
CD4+ naive T cells were negatively enriched using human CD4+ naive T cells enrichment kit (StemCell Technologies, Catalog #19155). The purity of naive T cells was measured by FACS analysis. […]

[2] = molecular target: T1, Recombinant human IL-23R-Fc (Homo sapiens, UniProt Q5VWK5); experiment: Competitive ELISA, IL-23 binding to IL-23R; details: for inhibition of IL-23 binding to its receptor by modified polypeptides, Competitive ELISA: procedure of Example 6, compared with parent polypeptide
T1 construct: has the protein portion between the 24 amino acid residue to 353 amino acid residue; purchased R&D Systems 1400-IR-050
T1 sequence (Q5VWK5 24-353): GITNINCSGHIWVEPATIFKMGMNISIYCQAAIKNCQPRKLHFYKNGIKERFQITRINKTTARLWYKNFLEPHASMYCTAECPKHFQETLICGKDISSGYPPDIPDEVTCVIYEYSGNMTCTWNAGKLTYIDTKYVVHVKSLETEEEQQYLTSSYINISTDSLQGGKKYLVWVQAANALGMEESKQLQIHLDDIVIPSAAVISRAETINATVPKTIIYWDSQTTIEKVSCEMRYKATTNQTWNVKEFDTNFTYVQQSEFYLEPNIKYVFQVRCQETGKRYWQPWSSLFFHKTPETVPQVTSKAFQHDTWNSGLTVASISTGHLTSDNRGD
Protocol: The novel polypeptides were tested for their ability to inhibit IL-23 using a Competitive ELISA. In such an assay, IL-23R/Fc fusion protein was immobilized on a solid support. In this instance, the solid support was a 96-well plate, but the support may be any support that is typically used for an ELISA. The novel polypeptide and IL-23 were allowed to compete for binding to the immobilized IL-23R/Fc fusion protein. IL-23 that bound to IL-23R-Fc was detected using biotinylated anti-p40 antibody. The bound anti-p40 antibody was detected using streptavidin-horseradish peroxidase (HRP) and a tetramethylbenzidine (TMB) substrate was added to measure peroxidase activity. The color was measured at optical density (OD) 450nm. The color intensity was directly proportional to the amount of the bound IL-23 protein. […] (See, FIG. 16.)
(§1) FIG. 12 is a schematic depiction of the Competitive ELISA. Recombinant human IL-23R-Fc (2 μg/ml) was coated onto microtiter plates as a capture reagent. IL-23 and polypeptides were added to compete for binding to the immobilized IL-23R-Fc. IL-23 that bound to IL-23R-Fc was detected using biotinylated anti-p40 antibody (1:250). The bound anti-p40 antibody was detected using streptavidin-horseradish peroxidase (HRP) (1:500) and 100 μl/well of a tetramethylbenzidine (TMB) substrate was added to measure peroxidase activity. The color was measured at optical density (OD) 450nm. (See, FIG. 12). The color intensity was directly proportional to the amount of the bound IL-23 protein.
as §1, with “Recombinant” for “FIG. 12 is a schematic depiction of the Competitive ELISA. Recombinant”, “IL-23R-Fc. 50 μg human IL-23 (Cat. No. HZ-1048) (Humanzyme, Chicago, Ill.) in the presence or absence of 100 μM peptides was added to the well and incubated at 4° C. overnight.” for “IL-23R-Fc.”, “450nm.” for “450nm. (See, FIG. 12).”

IC50 [1] | IC50 ([2]; human IL-23 / IL-23R-Fc, read-out: IC50, cell-free competitive ELISA) | Compound | inhibition of IL-23 binding to its receptor by modified polypeptides, Competitive ELISA [2]
339 nM | 8.1 nM | CSCC[C@@H]1NC(=O)[C@H](CCCCN)NC(=O)[C@H](C)NC(=O)[C@H](C)NC(=O)[C@H](CS)NC(=O)[C@H](CC(N)=O)NC(=O)[C@H](CCCCN)NC(=O)[C@H](CC(C)C)NC(=O)[C@H](Cc2c[nH]c3ccccc23)NC(=O)[C@H](Cc2ccc(O)cc2)NC(=O)[C@H](CC(=O)O)NC(=O)[C@H](C(C)C)NC(=O)[C@H](Cc2c[nH]c3ccccc23)NC(=O)[C@H]([C@@H](C)O)NC1=O [2HT AA] (cyclo(AAKMTWVDYWLKNC)) | did not abrogate the polypeptides' ability; also recorded: best inhibitory activity
 |  | CSCC[C@@H]1NC(=O)[C@H](C)NC(=O)[C@@H](N)CSSC[C@@H](C(=O)O)NC(=O)[C@H](CCCNC(=N)N)NC(=O)CNC(=O)[C@H](Cc2ccc(O)cc2)NC(=O)[C@H](CC(C)C)NC(=O)[C@H](Cc2c[nH]c3ccccc23)NC(=O)[C@H](Cc2ccc(O)cc2)NC(=O)[C@H](CC(=O)O)NC(=O)[C@H](CCC(N)=O)NC(=O)[C@H](Cc2c[nH]c3ccccc23)NC(=O)[C@H]([C@@H](C)O)NC1=O [23.19] | equally effective
